A short description of the data set: Water solubility. It is filed as physicochemical. Particulars: deionized water, pH 7, room temperature. How it is done:
[drawing 6] 2,3-dihydroxyterephthalic acid dimethyl ester (12.89 g, 57 mmol) from step a) was suspended in N,N-dimethylethylenediamine (72.8 g, 809 mmol) and the reaction mixture was stirred for 24 hours at 100° C. After adding 100 ml of dimethylformamide (DMF), the excess of N,N-dimethylethylenediamine, together with the DMF, was removed by distillation. The solid obtained was washed 2 times using 300 ml of ethyl acetate, subsequently recrystallized from methanol/ethyl acetate (1:2.5) and dried in a vacuum. 9.6 g of 2,3-dihydroxy-N,N′-bis(2-(dimethylamino)ethyl)terephthaldiamide was obtained as a beige solid. The water solubility thereof (deionized water, pH 7, room temperature) was over 70 g/l.

In general, solubility refers to the dissolved amount per volume that the medium holds. High values mean much dissolved substance, low ones little dissolved substance. The compound `CN(C)CCNC(=O)c1ccc(C(=O)NCCN(C)C)c(O)c1O` [S1, 2,3-dihydroxy-N,N′-bis(2-(dimethylamino)ethyl) terephthaldiamide] showed a solubility greater than 70 mg/mL.

For the origin of these results see patent US10876076B2, “Detergents and cleaning agents having improved performance” (Henkel AG & Co. KGaA, priority 2016, dated 2020).
